# Test system: RGC-5 cells
# Experiment: Cytoprotective action under OGD stress (dead cell rate, nuclear staining)
# Format: cell-based
# Conditions: no OGD stress
# Description: The RGC-5 cell line is a cell line from rat retinal ganglion cells and used for in vitro tests for cell damage evaluation. The RGC-5 cell line can be cultured in accordance with the method disclosed in NAKAJIMA Y. et al., Zeaxanthin, a Retinal Carotenoid, Protects Retinal Cells against Oxidative Stress, Current Eye Research, 2009, Vol. 34, pp. 311-318.
# Here, the expression OGD stress refers to a state in which the supply of oxygen and glucose is restricted.
# RGC-5 cells were added at a concentration of 1×10^3 cells/well to a DMEM medium containing glucose […] that was concentrated at 4.5 times the general concentration and fetal bovine serum (FBS: 10%) of Oseanian origin that was concentrated at 10 times the general concentration, followed by culture for 24 hours. […]
# Then, the mixture was washed twice with FBS-free base medium, followed by culture in DMEM medium containing high-concentration glucose […] and general-concentration FBS (1%) for 18 hours. The dead cell rate and the state of reactive oxygen species (ROS) generation were determined via nuclear staining. […] Meanwhile, the state of reactive oxygen species (ROS) generation was determined in accordance with the method disclosed in NAKAJIMA Y. et al., Zeaxanthin, a Retinal Carotenoid, Protects Retinal Cells against Oxidative Stress, Current Eye Research, 2009, Vol. 34, pp. 311-318. […]
smiles,measurement,value
CC1=NN(c2ccccc2)C(=O)C1 [Edaravone],cell death in the absence of OGD stress,did not cause cell death

# — patent US20170007554A1, “MEDICINE FOR PREVENTING ISCHEMIC DISEASES” (JX NIPPON OIL & ENERGY CORPORATION, priority 2014, published 2017)
